# Experimental data reported in patent US11634688B2, “Methods and compositions for inducing hematopoietic cell differentiation” (FATE THERAPEUTICS, INC., priority 2015, dated 2023).
# What was measured:
# hiPSCs = experiment: generation of CD34+ HE from hiPSC monolayer differentiation, flow cytometry at about D10; assay type: cell-based, human
# Description: The above iHSC platform was further optimized for hematopoietic lineage cells differentiation. To initiate differentiation towards the hematopoietic lineage, hiPSCs were seeded as a monolayer on Day (D) 0 in the maintenance medium and allowed to adhere and expand for about 24 hours. At this point, the maintenance medium was removed and replaced with base medium without maintenance factors at D1. Hematopoietic differentiation was initiated at around D2 by switching the culture medium to iCD34-A (see FIG. 12). […] The monolayers were maintained until around D5-D6 at which point they were dissociated into single cells and seeded as a low density monolayer in iCD34-C medium until differentiation around D10. Low oxygen tension (2-10% O2) was maintained from the onset of hematopoietic differentiation around D2 up until around D10 of differentiation.
# During the culture process, the directed differentiation towards the hematopoietic lineage was monitored by the dissociation of the monolayers into single cells and analysis for the surface marker expression of CD34, and optionally, CD43, CD45, CXCR4 and CD73 (FIG. 15A). At around D8 of differentiation, the appearance of a cell population representing HE was observed by the cell surface expression signature CD34+. CD43−CXCR4−CD73− was also observed in the CD34+ cells. The CD34+ population was maintained until around D10 (FIG. 15A). At D10, which time point can be shortened to about D9 or extended until about D12, the cells were dissociated into single cells and the CD34+ HE population was sorted by FACS using a BD FACS Aria for further analysis and functional assessment. […]
# To optimize the efficient generation of HE from hiPSCs after around 10 days of differentiation several parameters were examined. The optimal plating density of the monolayers at DO of differentiation was assessed by plating increasing amounts of hiPSCs from 7.5×10^4/well to 1.5×10^5/well on matrigel™-coated 6 well culture dishes and then analyzing the generation of the CD34+ HE population at about D10. […]
# The effect of the concentration of BMP4 modulation during the initial stages of hematopoietic differentiation on the generation of HE was assessed by treating the cultures with increasing concentrations of BMP4 ranging from 0 ng/ml to 30 ng/ml from about D2 to about D6 of differentiation. The generation of HE at D10 was assessed by the detection of the CD34+ HE population.
# The Wnt pathway activator CHIR99021 is responsible for the induction of the definitive hematopoetic program from hiPSCs. The effect of the modulation of CHIR during the induction phase of the hematopoietic differentiation protocol was assessed by treating the cultures with increasing concentrations of CHIR from about D3.75 to about D6. […]
# [1] = system: umbilical cord blood CD34+ cells; experiment: stromal-free NK cell differentiation on plate-bound DLL4, umbilical cord blood CD34+ cells; conditions: plate-bound DLL4 vs stromal-based and stromal-free control cultures; 10-15 days
# Description: Specific to NK cells, enriched umbilical cord blood CD34+ cells were plated in iNK-A serum-free differentiation media containing SCF, Flt3L, IL3, IL15 and IL7 in culture plates containing DLL4 protein or control protein. After 5 days the iNK-B medium was maintained to complete NK cell differentiation. After approximately 10-15 days of culture, the culture was assessed for the generation of NK cell progenitors and the absence of myeloid cells. CD56, CD7 and CD161 are the first cell surface markers to be expressed during NK cell development. CD11b and CD14 are cell surface markers expressed on myeloid cell subsets. FIG. 29 depicts stromal-free differentiation of umbilical cord blood CD34+ cells towards NK cells. […] Early NK lineage markers identify the presence of proNK cells as defined by CD56, CD7 and CD161 and the absence of myeloid markers CD11b and CD14.
# [2] = system: Day 10 CD34+ iHE sorted cells; experiment: stromal-free NK cell differentiation on plate-bound DLL4, hiPSC-derived iHE; assay type: cell-based, human; conditions: plate bound DLL4 vs control protein; CD45+ gating
# [3] = CHIR from about D3.75 to about D6
molecule,measurement,setting,value
IGF1: insulin-like growth factor 1,effect of addition of IGF1 and EPO on percentage of HE at around D10,hiPSCs; IGF1 and EPO added together at Day 8,decreases the percentage of HE
"DLL4: Notch activator, plate-bound DLL4 protein",differentiation of CD56+CD7+CD161+ NK cell progenitors,[1],supports a more rapid and efficient differentiation of CD56+CD7+CD161+ NK cell progenitors
same,differentiation of NK cell progenitors and myeloid cells,[2],supports the differentiation of CD56+CD7+CD161+ NK cell progenitors but not CD11b+myeloid cells
"Cc1c[nH]c(-c2cnc(NCCNc3ccc(C#N)cn3)nc2-c2ccc(Cl)cc2Cl)n1 [CHIR99021, reference compound]",effect of increasing CHIR99021 concentration on percentage of HE subpopulation,hiPSCs; [3],decreases the percentage of the HE subpopulation
same,effect of increasing CHIR99021 concentration on total percentage of CD34+ cells,hiPSCs; [3],increases the total percentage of CD34+ cells
"BMP4: bone morphogenetic protein, BMP pathway activator (protein, UniProt P12644 293-408, looked up) Bone morphogenetic protein 4: SPKHHSQRARKKNKNCRRHSLYVDFSDVGWNDWIVAPPGYQAFYCHGDCPFPLADHLNSTNHAIVQTLVNSVNSSIPKACCVPTELSAISMLYLDEYDKVVLKNYQEMVVEGCGCR",optimal concentration of BMP4 for HE population at D10,"hiPSCs; BMP4 0 ng/ml to 30 ng/ml from about D2 to about D6, CD34+ HE at D10",about 3 ng/mL
